# In patent US20120149625A1, “Detergent Composition” (Novozymes A/S, priority 2009, published 2012):
# Like-named read-outs stand apart in the source and are kept apart here. Residues, ends and D or L forms follow the SMILES beside them. *: point of attachment. Cbz = O=C(OCc1ccccc1)*
# What was measured:
# Savinase [1] = target: T1, Savinase (Lederbergia lenta, UniProt P29600); assay: biochemical; conditions: substrate SucAAPF-pNA, 0,1M TRIS pH 9.0, 25° C., [E]0=6E-09 M, read-out: inhibition constant Ki
# T1 sequence (P29600 1-269): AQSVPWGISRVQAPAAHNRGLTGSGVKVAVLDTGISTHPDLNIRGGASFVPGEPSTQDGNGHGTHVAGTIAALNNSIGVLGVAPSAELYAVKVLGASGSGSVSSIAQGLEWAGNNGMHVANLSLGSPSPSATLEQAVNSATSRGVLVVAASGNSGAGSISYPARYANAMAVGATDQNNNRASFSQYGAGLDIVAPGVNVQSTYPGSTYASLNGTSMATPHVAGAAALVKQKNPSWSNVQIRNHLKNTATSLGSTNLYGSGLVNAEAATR
# [2] = target: Savinase variant Y167A + R170S + A194P (Lederbergia lenta, UniProt P29600, A188P/R164S/Y161A); conditions: Powder Detergent 2 at 2.5 g/L, 30 nM Savinase variant Y167A + R170S + A194P, 20° C., 15° dH
# Alcalase [3] = target: T2, Alcalase (Bacillus licheniformis, UniProt P00780); assay: AMSA laundry detergency, powder detergent, various inhibitors (Example 1); conditions: 30 nM protease, 40° C., 15° dH, inhibitor dosage 5, None = 100%
# T2 construct: purchased Novozymes A/S
# T2 sequence (P00780 106-379): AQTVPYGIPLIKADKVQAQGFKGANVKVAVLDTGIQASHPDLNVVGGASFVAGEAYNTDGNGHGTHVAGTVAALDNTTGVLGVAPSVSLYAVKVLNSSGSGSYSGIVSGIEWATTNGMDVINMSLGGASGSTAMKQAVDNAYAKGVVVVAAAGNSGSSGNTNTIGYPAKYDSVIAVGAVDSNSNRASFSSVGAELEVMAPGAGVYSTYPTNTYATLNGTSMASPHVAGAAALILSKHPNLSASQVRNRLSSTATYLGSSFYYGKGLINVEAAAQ
# Savinase variant S99SE = Savinase variant S99SE (Lederbergia lenta, UniProt P29600, INS97E); conditions: Powder Detergent 2 at 2.5 g/L, 30 nM Savinase variant S99SE, 20° C., 15° dH
# Savinase [4] = target: T1, Savinase; assay: Washing test with protease and inhibitor at various molar ratios (Example 4); conditions: 20° C., 15° dH
# Procedure: Washing tests were made in detergents with a protease and an inhibitor. Washing conditions were 20 minutes washing at 20° C. and 15° dH. […] The inhibitor was inhibitor Z-GAY-H at various molar ratios. The results are shown as detergency with the inhibitor relative to detergency at the same conditions without the inhibitor:
# The detergent was a powder detergent with the following composition at 2.5 g/L.
# 20.05 g Na-citrate dehydrate
# The liquid detergent described under the AMSA assay was used.
# The powder detergent described under the AMSA assay was used.
# Protease 10R = assay: Washing test in commercial liquid detergents (Example 4); conditions: Liquid detergent Commercial 1; inhibitor:protease molar ratio 5:1; 20 min, 20° C., 15° dH
# Procedure: (§1) Washing tests were made in detergents with a protease and an inhibitor. Washing conditions were 20 minutes washing at 20° C. and 15° dH. The protease was Savinase at 30 nM. The inhibitor was inhibitor Z-GAY-H at various molar ratios. The results are shown as detergency with the inhibitor relative to detergency at the same conditions without the inhibitor:
# (§2) Two commercial liquid detergents purchased in England were tested with inhibitor:protease molar ratio of 5:1. Protease 10R is described in WO 88/03947. Protease PD138 is described in […]
# Protease PD138 = assay: as above; conditions: Liquid detergent Commercial 1; inhibitor:protease molar ratio 5:1; 20 min, 20° C., 15° dH
# Procedure: as §1, §2
# Alcalase [5] = target: T2, Alcalase; assay: Washing test with protease and inhibitor at various molar ratios (Example 4); conditions: 30 nM Alcalase, 20° C., 15° dH
# Savinase [6] = target: T1, Savinase; assay: AMSA laundry detergency, laundry liquid model detergent, various inhibitors (Example 2); conditions: 30 nM Savinase, 20° C., 15° dH, inhibitor dosering 5, None = 100%
# Procedure: Model detergents and test materials for laundry were as follows:
# After washing the textiles were flushed in tap water and dried.
# Detergency was determined with various inhibitors in the laundry liquid model detergent with 30 nM protease (Savinase). Washing was done at 20° C. and water hardness 15° dH with test swatches EMPA117EH.
# Savinase [7] = target: T1, Savinase; assay: AMSA laundry detergency, powder detergent, various inhibitors (Example 1); conditions: 30 nM protease, 40° C., 15° dH
# [8] = inhibitor:protease molar ratio 5, None = 100%
# [9] = inhibitor:protease molar ratio 500, None = 100%
# [10] = molar ratio not given, None = 100%
# Chain of Savinase variant Y167A + R170S + A194P (P29600 whole entry Y161A/R164S/A188P): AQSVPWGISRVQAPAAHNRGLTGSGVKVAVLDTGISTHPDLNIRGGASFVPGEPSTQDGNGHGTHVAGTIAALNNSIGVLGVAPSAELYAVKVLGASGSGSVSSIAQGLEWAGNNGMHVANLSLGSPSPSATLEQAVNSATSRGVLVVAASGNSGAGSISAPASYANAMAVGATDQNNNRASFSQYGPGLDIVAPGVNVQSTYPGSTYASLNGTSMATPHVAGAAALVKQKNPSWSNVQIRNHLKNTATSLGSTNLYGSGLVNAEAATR
# Chain of Savinase variant S99SE (P29600 other isoform, or with tags, fused parts or gaps INS97E): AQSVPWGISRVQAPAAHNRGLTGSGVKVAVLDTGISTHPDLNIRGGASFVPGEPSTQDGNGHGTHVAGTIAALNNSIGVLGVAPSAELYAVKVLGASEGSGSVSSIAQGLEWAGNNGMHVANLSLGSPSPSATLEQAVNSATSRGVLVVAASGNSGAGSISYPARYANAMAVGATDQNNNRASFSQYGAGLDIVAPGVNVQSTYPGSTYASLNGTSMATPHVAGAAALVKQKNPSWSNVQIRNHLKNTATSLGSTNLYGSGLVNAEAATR
structure (smiles),measurement,setting,value
C[C@H](NC(=O)CNC(=O)OCc1ccccc1)C(=O)N[C@H](C=O)Cc1ccc(O)cc1 [Z-GAY-H] (Cbz-Gly-Ala-Tyr-aldehyde),Ki,Savinase [1],7.4 nM
same,detergency with the inhibitor relative to without,[2]; molar ratio 1.5,100%
same,detergency with the inhibitor relative to without,[2]; molar ratio 3,107%
same,detergency with the inhibitor relative to without,[2]; molar ratio 5,107%
same,CS-37 % performance,Alcalase [3],147%
same,EMPA117EH % performance,Alcalase [3],108%
same,detergency with the inhibitor relative to without,Savinase variant S99SE; molar ratio 1.5,100%
same,detergency with the inhibitor relative to without,Savinase variant S99SE; molar ratio 3,103%
same,detergency with the inhibitor relative to without,Savinase variant S99SE; molar ratio 5,106%
same,detergency with the inhibitor relative to without,"Savinase [4]; Liquid Detergent (AMSA model), 30 nM Savinase, molar ratio 1.5",114%
same,detergency with the inhibitor relative to without,"Savinase [4]; Liquid Detergent (AMSA model), 30 nM Savinase, molar ratio 3",109%
same,detergency with the inhibitor relative to without,"Savinase [4]; Liquid Detergent (AMSA model), 30 nM Savinase, molar ratio 5",108%
same,detergency with the inhibitor relative to without,"Savinase [4]; Powder Detergent 1 (AMSA model), 10 nM Savinase, molar ratio 0.5",112%
same,detergency with the inhibitor relative to without,"Savinase [4]; Powder Detergent 1 (AMSA model), 10 nM Savinase, molar ratio 1",108%
same,detergency with the inhibitor relative to without,"Savinase [4]; Powder Detergent 1 (AMSA model), 10 nM Savinase, molar ratio 1.5",111%
same,detergency with the inhibitor relative to without,"Savinase [4]; Powder Detergent 1 (AMSA model), 10 nM Savinase, molar ratio 2",121%
same,detergency with the inhibitor relative to without,"Savinase [4]; Powder Detergent 1 (AMSA model), 10 nM Savinase, molar ratio 3",118%
same,detergency with the inhibitor relative to without,"Savinase [4]; Powder Detergent 1 (AMSA model), 10 nM Savinase, molar ratio 5",118%
same,detergency with the inhibitor relative to without,"Savinase [4]; Powder Detergent 1 (AMSA model), 10 nM Savinase, molar ratio 10",122%
same,detergency with the inhibitor relative to without,"Savinase [4]; Powder Detergent 1 (AMSA model), 10 nM Savinase, molar ratio 15",116%
same,detergency with the inhibitor relative to without,"Savinase [4]; Powder Detergent 1 (AMSA model), 10 nM Savinase, molar ratio 20",104%
same,detergency with the inhibitor relative to without,"Savinase [4]; Powder Detergent 1 (AMSA model), 10 nM Savinase, molar ratio 30",101%
same,detergency with the inhibitor relative to without,"Savinase [4]; Powder Detergent 1 (AMSA model), 10 nM Savinase, molar ratio 50",95%
same,detergency with the inhibitor relative to without,"Savinase [4]; Powder Detergent 1 (AMSA model), 30 nM Savinase, molar ratio 0.5",106%
same,detergency with the inhibitor relative to without,"Savinase [4]; Powder Detergent 1 (AMSA model), 30 nM Savinase, molar ratio 1",105%
same,detergency with the inhibitor relative to without,"Savinase [4]; Powder Detergent 1 (AMSA model), 30 nM Savinase, molar ratio 1.5",107%
same,detergency with the inhibitor relative to without,"Savinase [4]; Powder Detergent 1 (AMSA model), 30 nM Savinase, molar ratio 2",108%
same,detergency with the inhibitor relative to without,"Savinase [4]; Powder Detergent 1 (AMSA model), 30 nM Savinase, molar ratio 3",105%
same,detergency with the inhibitor relative to without,"Savinase [4]; Powder Detergent 1 (AMSA model), 30 nM Savinase, molar ratio 5",110%
same,detergency with the inhibitor relative to without,"Savinase [4]; Powder Detergent 1 (AMSA model), 30 nM Savinase, molar ratio 10",107%
same,detergency with the inhibitor relative to without,"Savinase [4]; Powder Detergent 1 (AMSA model), 30 nM Savinase, molar ratio 15",99%
same,detergency with the inhibitor relative to without,"Savinase [4]; Powder Detergent 1 (AMSA model), 30 nM Savinase, molar ratio 20",95%
same,detergency with the inhibitor relative to without,"Savinase [4]; Powder Detergent 1 (AMSA model), 30 nM Savinase, molar ratio 30",83%
same,detergency with the inhibitor relative to without,"Savinase [4]; Powder Detergent 1 (AMSA model), 30 nM Savinase, molar ratio 50",80%
same,detergency with the inhibitor relative to without,"Savinase [4]; Powder Detergent 2 at 2.5 g/L, 30 nM Savinase, molar ratio 1.5",132%
same,detergency with the inhibitor relative to without,"Savinase [4]; Powder Detergent 2 at 2.5 g/L, 30 nM Savinase, molar ratio 3",140%
same,detergency with the inhibitor relative to without,"Savinase [4]; Powder Detergent 2 at 2.5 g/L, 30 nM Savinase, molar ratio 5",134%
same,Detergency increase,Protease 10R,107%
same,Detergency increase,Protease PD138,107%
same,detergency with the inhibitor relative to without,"Alcalase [5]; Liquid Detergent (AMSA model), molar ratio 1.5",145%
same,detergency with the inhibitor relative to without,"Alcalase [5]; Liquid Detergent (AMSA model), molar ratio 3",169%
same,detergency with the inhibitor relative to without,"Alcalase [5]; Liquid Detergent (AMSA model), molar ratio 5",146%
same,detergency with the inhibitor relative to without,"Alcalase [5]; Liquid Detergent (AMSA model), molar ratio 7.5",149%
same,detergency with the inhibitor relative to without,"Alcalase [5]; Liquid Detergent (AMSA model), molar ratio 10",147%
same,detergency with the inhibitor relative to without,"Alcalase [5]; Powder Detergent 2 at 2.5 g/L, molar ratio 3",103%
same,detergency with the inhibitor relative to without,"Alcalase [5]; Powder Detergent 2 at 2.5 g/L, molar ratio 5",113%
same,detergency with the inhibitor relative to without,"Alcalase [5]; Powder Detergent 2 at 2.5 g/L, molar ratio 7.5",116%
same,detergency with the inhibitor relative to without,"Alcalase [5]; Powder Detergent 2 at 2.5 g/L, molar ratio 10",119%
same,EMPA117EH % performance increase,Savinase [6],114%
same,CS-37 % performance,Savinase [7]; [8],242%
same,EMPA117EH % performance,Savinase [7]; [8],117%
"O=Cc1ccc(B(O)O)cc1 [Inhibitor 4-FPBA, 4-formyl-phenyl-boronic acid]",CS-37 % performance,Savinase [7]; [9],128%
same,EMPA117EH % performance,Savinase [7]; [9],107%
same,CS-37 % performance,Savinase [7]; [10],137%
same,EMPA117EH % performance,Savinase [7]; [10],111%
